The values below come from patent US8895733B2 (Novartis AG, priority 2010, dated 2014).

Structures are written as SMILES.

In the first assay the target is T1, Nav 1.7 (Homo sapiens, UniProt Q15858).
T1 construct: expressed in transfected cells
T1 sequence (Q15858 whole entry): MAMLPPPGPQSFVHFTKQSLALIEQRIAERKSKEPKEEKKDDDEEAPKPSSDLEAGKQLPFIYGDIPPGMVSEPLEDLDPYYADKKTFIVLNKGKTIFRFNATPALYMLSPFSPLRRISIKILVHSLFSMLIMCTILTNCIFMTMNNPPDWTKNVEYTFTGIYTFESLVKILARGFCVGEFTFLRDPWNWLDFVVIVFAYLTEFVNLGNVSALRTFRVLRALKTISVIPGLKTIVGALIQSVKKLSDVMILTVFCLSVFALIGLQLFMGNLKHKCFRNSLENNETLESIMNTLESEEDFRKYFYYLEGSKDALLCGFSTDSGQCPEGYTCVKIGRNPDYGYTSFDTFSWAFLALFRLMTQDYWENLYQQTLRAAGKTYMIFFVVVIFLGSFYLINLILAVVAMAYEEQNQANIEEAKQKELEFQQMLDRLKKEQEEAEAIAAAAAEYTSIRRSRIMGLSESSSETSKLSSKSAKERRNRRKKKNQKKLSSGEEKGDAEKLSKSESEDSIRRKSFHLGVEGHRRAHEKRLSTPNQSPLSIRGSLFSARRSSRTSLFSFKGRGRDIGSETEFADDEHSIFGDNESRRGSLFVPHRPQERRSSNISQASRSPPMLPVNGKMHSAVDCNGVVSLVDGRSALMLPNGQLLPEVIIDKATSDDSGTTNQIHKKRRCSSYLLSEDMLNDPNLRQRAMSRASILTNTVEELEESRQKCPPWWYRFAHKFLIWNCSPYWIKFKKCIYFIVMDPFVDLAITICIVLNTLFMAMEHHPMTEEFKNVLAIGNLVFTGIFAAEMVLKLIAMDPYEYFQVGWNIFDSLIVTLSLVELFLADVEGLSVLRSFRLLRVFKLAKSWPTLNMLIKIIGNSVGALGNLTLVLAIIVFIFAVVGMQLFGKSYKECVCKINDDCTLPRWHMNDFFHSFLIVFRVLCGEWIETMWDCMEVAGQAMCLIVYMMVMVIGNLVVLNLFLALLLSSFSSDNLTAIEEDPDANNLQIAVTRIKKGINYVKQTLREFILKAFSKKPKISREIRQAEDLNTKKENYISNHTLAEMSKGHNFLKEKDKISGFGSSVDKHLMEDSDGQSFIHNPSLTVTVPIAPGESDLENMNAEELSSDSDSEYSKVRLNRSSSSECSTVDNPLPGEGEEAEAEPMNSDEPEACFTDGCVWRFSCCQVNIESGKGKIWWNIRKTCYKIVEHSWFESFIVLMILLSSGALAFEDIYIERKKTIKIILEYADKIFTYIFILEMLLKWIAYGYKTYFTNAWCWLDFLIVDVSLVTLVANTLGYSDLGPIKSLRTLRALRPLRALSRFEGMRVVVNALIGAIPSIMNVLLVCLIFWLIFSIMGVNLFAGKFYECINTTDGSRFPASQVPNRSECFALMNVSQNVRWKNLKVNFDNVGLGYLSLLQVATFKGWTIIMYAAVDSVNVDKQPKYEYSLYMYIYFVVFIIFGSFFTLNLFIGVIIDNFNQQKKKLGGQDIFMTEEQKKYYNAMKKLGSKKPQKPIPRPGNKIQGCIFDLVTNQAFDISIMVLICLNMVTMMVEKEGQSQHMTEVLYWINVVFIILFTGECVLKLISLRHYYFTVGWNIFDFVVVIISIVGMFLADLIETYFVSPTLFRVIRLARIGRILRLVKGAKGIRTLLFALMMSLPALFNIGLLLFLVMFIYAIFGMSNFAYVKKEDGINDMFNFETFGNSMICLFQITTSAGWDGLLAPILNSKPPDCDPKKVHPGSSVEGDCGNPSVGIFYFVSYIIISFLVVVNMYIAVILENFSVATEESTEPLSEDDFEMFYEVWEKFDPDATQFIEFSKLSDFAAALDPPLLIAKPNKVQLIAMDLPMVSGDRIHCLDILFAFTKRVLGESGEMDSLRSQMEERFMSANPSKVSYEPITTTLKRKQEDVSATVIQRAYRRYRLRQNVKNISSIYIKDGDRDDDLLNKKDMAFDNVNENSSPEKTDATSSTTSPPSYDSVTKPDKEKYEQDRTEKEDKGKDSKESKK
Description: Whole-cell voltage clamp electrophysiology, manual patch clamp (marker b in Table of Examples). It counts as cell-based. Conditions: 10 μM; marker b: Manual patch clamp data. The source says:
a.IonWork Quattro data, b=Manual patch clamp data, c=Automated patch clamp data M=Method
Whole-Cell Voltage Clamp Electrophysiology Assay
Patch-clamp electrophysiology is considered the gold standard technique for investigation of ion channel function and pharmacology. Using this method, sodium channel currents can be measured in cells, which stably (or transiently) express the sodium channel subtype of interest. Application of compounds during such experiments provides a functional measure of the activity and potency of compounds affecting the ion channel of interest.
Electrophysiological studies can also be performed using the whole cell configuration of the standard manual patch clamp technique as described in the literature (e.g. Pflugers Arch., 1981, 391(2), 85-100). In this assay, cells that express the voltage-gated sodium channel protein of interest are exposed to the drugs by conventional microperfusion systems, or by a home-built perfusion system. A suitable voltage stimulus protocol is used to activate the voltage-gated sodium channels.
A suitable voltage stimulus protocol is used to activate voltage-gated sodium channel proteins of interest. A typical stimulus protocol may consist of sweeps of sequential voltage pulses starting from a holding potential (i.e. −65 mV), to a more positive and depolarising test pulse potential (i.e. −10 mV) and finally to a more negative and hyperpolarising potential (i.e. −100 mV). According to the biophysics of the voltage-gated ion channel of interest and interest in channel configuration the voltages and durations of the pulses as well as the overall frequency of sweeps applied might vary. Accordingly, a stimulus protocol was designed to assess compounds due to their potential to block NaV1.7 channels primarily in inactivated state. Selectivity over other voltage-gated sodium channel members was assessed by protocols that reflect the native function of the channels (i.e. heart rate or firing of neurons).
Electrophysiological studies can also be performed using the whole cell configuration of the standard manual patch clamp technique as described in the literature (e.g. Pflugers Arch., 1981, 391(2), 85-100). In this assay, cells that express the human voltage-gated sodium channel protein of interest are exposed to the drugs by conventional microperfusion systems, or by a home-built perfusion system. A suitable voltage stimulus protocol is used to activate the voltage-gated sodium channels. A suitable voltage stimulus protocol may consist of sequential voltage pulses from a holding potential, each first hyperpolarizing the cell, then depolarizing the channels for a brief period. A particularly suitable holding potential may be a voltage allowing a fraction of channels to remain in an inactivated state, like −60 mV. A suitable hyperpolarizing voltage and duration may be −120 mV for 100 ms, and depolarization voltage and duration may be −20 mV for 25 ms, and a suitable frequency of pulses may be 0.1 Hz, but may also have other parameters. Accordingly, a stimulus protocol was designed to assess compounds due to their potential to block NaV1.7 channels primarily in inactivated state. Selectivity over other voltage-gated sodium channel members was assessed by protocols that reflect the native function of the channels (i.e. heart rate or firing of neurons).
Take `CN(c1ccccc1)c1nc(N)nc(-c2noc(-c3cccc(Cl)c3)n2)n1` [Example 35, 6-[5-(3-Chloro-phenyl)-[1,2,4]oxadiazol-3-yl]-N-methyl-N-phenyl-[1,3,5]triazine-2,4-diamine]: the “Nav 1.7 activity, % at 10 μM” value was 44% (10 μM)^b.
As for `CN(c1ccccc1)c1nc(N)nc(-c2noc(-c3ccoc3)n2)n1` [Example 37, 6-(5-Furan-3-yl-[1,2,4]oxadiazol-3-yl)-N-methyl-N-phenyl-[1,3,5]triazine-2,4-diamine], the “Nav 1.7 activity, % at 10 μM” value is listed as 50% (10 μM)^b.

The same assay, now with this note: marker b: Manual patch clamp data; read-out: Nav 1.7 activity.
Turning to `CN(c1ccccc1)c1nc(N)nc(-c2noc(-c3ccc(OC4CCCC4)nc3)n2)n1` [Example 13, 6-[5-(6-Cyclopentoxy-pyridin-3-yl)-[1,2,4]oxadiazol-3-yl]-N-methyl-N-phenyl-[1,3,5]triazine-2,4-diamine], the IC50 was 4 nM.
Still for that read-out and setting: the figure for `CN(c1nc(N)nc(-c2noc(-c3ccco3)n2)n1)c1ccccc1F` [Example 14, N-(2-Fluoro-phenyl)-6-(5-furan-2-yl-[1,2,4]oxadiazol-3-yl)-N-methyl-[1,3,5]triazine-2,4-diamine] is 198 nM; for `CN(c1cccc(F)c1)c1nc(N)nc(-c2noc(-c3ccco3)n2)n1` [Example 15, N-(3-Fluoro-phenyl)-6-(5-furan-2-yl-[1,2,4]oxadiazol-3-yl)-N-methyl-[1,3,5]triazine-2,4-diamine] it is 152 nM.
As to `CN(c1ccccc1)c1nc(N)nc(-c2noc(-c3ccccc3Cl)n2)n1` [Example 23, 6-[5-(2-Chloro-phenyl)-[1,2,4]oxadiazol-3-yl]-N-methyl-N-phenyl-[1,3,5]triazine-2,4-diamine], the IC50 worked out at 106 nM.
As for `COc1ccccc1-c1nc(-c2nc(N)nc(N(C)c3ccccc3)n2)no1` [Example 25, 6-[5-(2-Methoxy-phenyl)-[1,2,4]oxadiazol-3-yl]-N-methyl-N-phenyl-[1,3,5]triazine-2,4-diamine], the IC50 came out at 47 nM.
`COc1ccc(-c2nc(-c3nc(N)nc(N(C)c4ccccc4)n3)no2)cc1` [Example 26, 6-[5-(4-Methoxy-phenyl)-[1,2,4]oxadiazol-3-yl]-N-methyl-N-phenyl-[1,3,5]triazine-2,4-diamine]: the IC50 was 148 nM.
For the molecule `CN(c1ccccc1)c1nc(N)nc(-c2noc(-c3ccc(Cl)cc3)n2)n1` [Example 36, 6-[5-(4-Chloro-phenyl)-[1,2,4]oxadiazol-3-yl]-N-methyl-N-phenyl-[1,3,5]triazine-2,4-diamine], the IC50 worked out at 165 nM.
Turning to `CCN(c1ccccc1)c1nc(N)nc(-c2noc(-c3nccs3)n2)n1` [Example 38, N-Ethyl-N-phenyl-6-(5-thiazol-2-yl-[1,2,4]oxadiazol-3-yl)-[1,3,5]triazine-2,4-diamine], the IC50 was determined as 1120 nM.
The same measure, in the same setting: the figure for `CN(c1ccccc1)c1nc(N)nc(-c2noc(N3CCCCC3)n2)n1` [Example 46, N-Methyl-N-phenyl-6-(5-piperidin-1-yl-[1,2,4]oxadiazol-3-yl)-[1,3,5]triazine-2,4-diamine] is 511 nM.
Turning to `CN(c1ccccc1)c1nc(N)nc(-c2noc(C3CCOC3)n2)n1` (stereo not drawn) [Example 48], the IC50 is 4630 nM.
As to `CN(c1ccccc1)c1nc(N)nc(-c2noc(-c3cncs3)n2)n1` [Example 52, N-Methyl-N-phenyl-6-(5-thiazol-5-yl-[1,2,4]oxadiazol-3-yl)-[1,3,5]triazine-2,4-diamine], the IC50 came out at 909 nM.
Regarding `CN(c1ccccc1)c1nc(N)nc(-c2noc(-c3cncc(N)c3)n2)n1` [Example 54, 6-[5-(5-Amino-pyridin-3-yl)-[1,2,4]oxadiazol-3-yl]-N-methyl-N-phenyl-[1,3,5]triazine-2,4-diamine], the IC50 was determined as 2220 nM.
On to `CN(c1ccccc1)c1nc(N)nc(-c2noc(-c3ccn[nH]3)n2)n1` [Example 61, N-Methyl-N-phenyl-6-[5-(2H-pyrazol-3-yl)-[1,2,4]oxadiazol-3-yl]-[1,3,5]triazine-2,4-diamine], for which the IC50 is 561 nM.
On the same count and under the same terms, the figure for `COc1cccc(F)c1-c1nc(-c2nc(N)nc(N(C)c3ccccc3)n2)no1` [Example 81, 6-[5-(2-Fluoro-6-methoxy-phenyl)-[1,2,4]oxadiazol-3-yl]-N-methyl-N-phenyl-[1,3,5]triazine-2,4-diamine] is 21 nM; for `COC(=O)c1ccc(-c2nc(-c3nc(N)nc(N(C)c4ccccc4)n3)no2)s1` [Example 82, 5-{3-[4-amino-6-(methyl-phenyl-amino)-[1,3,5]triazin-2-yl]-[1,2,4]oxadiazol-5-yl}-thiophene-2-carboxylic acid methyl ester] it is 195 nM; for `CN(c1nc(N)nc(-c2noc(-c3ccco3)n2)n1)c1cc(F)ccc1F` [Example 104, N-(2,5-Difluoro-phenyl)-6-(5-furan-2-yl-[1,2,4]oxadiazol-3-yl)-N-methyl-[1,3,5]triazine-2,4-diamine] it is 93 nM.
Same read-out and setting: for `Cc1ccc(F)c(N(C)c2nc(N)nc(-c3noc(-c4ccco4)n3)n2)c1` [Example 105, N-(2-Fluoro-5-methyl-phenyl)-6-(5-furan-2-yl-[1,2,4]oxadiazol-3-yl)-N-methyl-[1,3,5]triazine-2,4-diamine] the value was 59 nM; for `CN(c1nc(N)nc(-c2noc(-c3ccco3)n2)n1)c1cccc(Cl)c1F` [Example 106, N-(3-Chloro-2-fluoro-phenyl)-6-(5-furan-2-yl-[1,2,4]oxadiazol-3-yl)-N-methyl-[1,3,5]triazine-2,4-diamine], 82 nM; for `Nc1nc(Nc2cc(Cl)ccc2F)nc(-c2noc(-c3ccco3)n2)n1` [Example 108, N-(5-Chloro-2-fluoro-phenyl)-6-(5-furan-2-yl-[1,2,4]oxadiazol-3-yl)-[1,3,5]triazine-2,4-diamine], 235 nM.
The same measure, in the same setting: for `Nc1nc(Nc2cccc(Cl)c2F)nc(-c2noc(-c3ccco3)n2)n1` [Example 111, N-(3-Chloro-2-fluoro-phenyl)-6-(5-furan-2-yl-[1,2,4]oxadiazol-3-yl)-[1,3,5]triazine-2,4-diamine] the value was 54 nM.
`Cc1cccc(Nc2nc(N)nc(-c3noc(-c4ccco4)n3)n2)c1F` [Example 112, N-(2-Fluoro-3-methyl-phenyl)-6-(5-furan-2-yl-[1,2,4]oxadiazol-3-yl)-[1,3,5]triazine-2,4-diamine]: the IC50 was found to be 87 nM.
As to `Nc1nc(Nc2cccc(F)c2F)nc(-c2noc(-c3ccco3)n2)n1` [Example 113, N-(2,3-Difluoro-phenyl)-6-(5-furan-2-yl-[1,2,4]oxadiazol-3-yl)-[1,3,5]triazine-2,4-diamine], the IC50 came out at 118 nM.
Consider `Nc1nc(Nc2cccc(F)c2)nc(-c2noc(-c3ccco3)n2)n1` [Example 117, N-(3-Fluorophenyl)-6-(5-furan-2-yl-[1,2,4]oxadiazol-3-yl)-[1,3,5]triazine-2,4-diamine], for which the IC50 came to 42 nM.
With `COCCN(c1ccccc1)c1nc(N)nc(-c2noc(-c3ccco3)n2)n1` [Example 119, 6-(5-Furan-2-yl-[1,2,4]oxadiazol-3-yl)-N-(2-methoxy-ethyl)-N-phenyl-[1,3,5]triazine-2,4-diamine], the IC50 came out at 400 nM.
With `CN(c1ccccc1)c1nc(N)nc(-c2noc(-c3ccc(OC(F)(F)F)nc3)n2)n1` [Example 133, 2-N-methyl-2-N-phenyl-6-{5-[6-(trifluoromethoxy)pyridin-3-yl]-1,2,4-oxadiazol-3-yl}-1,3,5-triazine-2,4-diamine], the IC50 turned out to be 635 nM.
